Laboratory results as given in ChEMBL document CHEMBL1158584, “Mono-, di-, and triaryl substituted tetrahydropyrans as cyclooxygenase-2 and tumor growth inhibitors. Synthesis and biological evaluation” (J Med Chem, 2010).

Experiments:
[1] = molecular target: T1, Prostaglandin G/H synthase 1 (Ovis aries) (UniProt P05979); test: Inhibition of ovine COX1 assessed as inhibition of PGF2a formation at 10 uM after 20 mins by Ellman's method
T1 sequence (whole entry): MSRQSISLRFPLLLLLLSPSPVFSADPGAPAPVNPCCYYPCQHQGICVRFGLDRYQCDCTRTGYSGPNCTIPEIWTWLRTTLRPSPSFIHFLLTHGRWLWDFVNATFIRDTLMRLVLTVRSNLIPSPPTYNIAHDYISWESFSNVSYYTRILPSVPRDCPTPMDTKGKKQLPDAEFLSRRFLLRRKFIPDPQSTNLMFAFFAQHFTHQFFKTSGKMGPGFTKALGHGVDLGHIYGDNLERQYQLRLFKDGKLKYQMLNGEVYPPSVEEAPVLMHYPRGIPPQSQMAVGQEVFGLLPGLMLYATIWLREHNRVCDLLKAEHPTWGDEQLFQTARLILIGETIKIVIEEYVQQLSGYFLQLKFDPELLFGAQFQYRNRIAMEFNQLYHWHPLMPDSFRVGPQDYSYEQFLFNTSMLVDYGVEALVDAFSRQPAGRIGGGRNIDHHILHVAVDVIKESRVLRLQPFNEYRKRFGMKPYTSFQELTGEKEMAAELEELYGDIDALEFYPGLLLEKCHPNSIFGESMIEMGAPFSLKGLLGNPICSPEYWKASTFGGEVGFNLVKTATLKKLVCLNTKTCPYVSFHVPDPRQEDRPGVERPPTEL

[2] = molecular target: T2, Prostaglandin G/H synthase 1 (Ovis aries, UniProt P05979); test: Inhibition of ovine COX1 assessed as inhibition of PGF2a formation after 20 mins by Ellman's method
T2 sequence (P05979 whole entry): T1 sequence (whole entry)

[3] = molecular target: T1, Prostaglandin G/H synthase 1 (Ovis aries); test: Inhibition of ovine COX1 assessed as inhibition of PGF2a formation at 1 uM after 20 mins by Ellman's method
[4] = molecular target: T1, Prostaglandin G/H synthase 1 (Ovis aries); test: Inhibition of ovine COX1 assessed as inhibition of PGF2a formation at 100 nM after 20 mins by Ellman's method
[5] = molecular target: T1, Prostaglandin G/H synthase 1 (Ovis aries); test: Inhibition of ovine COX1 assessed as inhibition of PGF2a formation at 100 uM after 20 mins by Ellman's method
[6] = molecular target: T1, Prostaglandin G/H synthase 1 (Ovis aries); test: Inhibition of ovine COX1 assessed as inhibition of PGF2a formation at 0.01 uM after 20 mins by Ellman's method
[7] = Growth inhibition of human NCI60 cells after 48 hrs by sulforhodamine B assay; assay type: functional; details: NCI60, 48 h

| SMILES | inhibition [1] [%] | IC50 [2] [nM] | inhibition [3] [%] | inhibition [4] [%] | inhibition [5] [%] | inhibition [6] [%] | GI50 [7] [nM] | CC50 ([7]; read-out: LC50 (the source's name)) [nM] |
| --- | --- | --- | --- | --- | --- | --- | --- | --- |
| N#CSC[C@@H]1C[C@@](O)(c2ccccc2)C[C@H](c2ccc(Br)cc2)O1 (relative stereo) | 94 | 209 | 65 | 48 |  |  |  |  |
| CCSC[C@@H]1C[C@](O)(c2ccccc2)[C@@H](c2ccccc2)[C@H](c2ccccc2)O1 (relative stereo) | 38 | 13900 | 16 |  | 52 |  |  |  |
| N#CSC[C@@H]1C[C@](O)(c2ccccc2)[C@@H](c2ccccc2)[C@H](c2ccccc2)O1 (relative stereo) | 27 | 64000 | 24 |  | 50 |  |  |  |
| CCSC[C@@H]1C[C@@](O)(c2ccccc2)C[C@H](c2ccc(Cl)cc2)O1 (relative stereo) | 94 | 413 | 60 | 45 |  |  |  |  |
| CCSC[C@@H]1C[C@@](O)(c2ccccc2)C[C@H](c2ccc(Br)cc2)O1 (relative stereo) | 94 | 562 | 58 | 40 |  |  |  |  |
| N#CSC[C@@H]1C[C@](O)(c2ccccc2)[C@@H](c2ccccc2)[C@H](c2ccc(Br)cc2)O1 (relative stereo) | 29 | 13000 | 28 |  | 50 |  |  |  |
| N#CSC[C@@H]1C[C@@](O)(c2ccccc2)C[C@H](c2ccccc2)O1 (relative stereo) | 94 | 2790 | 39 | 26 |  |  |  |  |
| CCSC[C@@H]1C[C@@](O)(c2ccccc2)C[C@H](C)O1 (relative stereo) | 55 | 347 | 51 | 40 | 62 | 32 |  |  |
| C[C@H]1C[C@](O)(c2ccccc2)C[C@@H](CSC#N)O1 (relative stereo) | 60 | 368 | 55 | 38 | 65 | 32 |  |  |
| CCSC[C@@H]1C[C@@](O)(c2ccccc2)C[C@H](c2ccccc2)O1 (relative stereo) | 94 | 2930 | 37 | 25 |  |  |  |  |
| CCSC[C@@H]1C[C@](O)(c2ccccc2)[C@@H](c2ccccc2)[C@H](c2ccc(Br)cc2)O1 (relative stereo) | 38 | 23800 | 41 |  | 60 |  |  |  |
| Cc1ccc(-c2cc(C(F)(F)F)nn2-c2ccc(S(N)(=O)=O)cc2)cc1 [CELECOXIB] |  |  |  |  |  |  | 17500 | 63300 |
